From patent publication US7943606B2, “Compositions and methods to control abnormal cell growth” (CanCure Laboratories, LLC, priority 2005, dated 2011)

Columns and labels:
[1] = test system: cancer cells; assay: Induction of cancer cell death by quaternary nitrogen dyes compared with CCDTHT; assay type: cell-based
Text: Despite these observations, for the purpose of embodiments of the invention, the thioxanthene or thioxanthone moiety may be replaced with any other heterocyclic moiety to which it is feasible to attach at least one quaternary nitrogen group with three substituents that together are capable of inhibiting the transport of external choline into cells and thereby inhibit cell proliferation.

[2] = test system: MXT tumor; assay: MXT mouse mammary tumor model: tumor volume and survival; assay type: in vivo; details: for Tumor volume, Day 7: start of treatment
Text: Tumors were developed in first generation hybrid BDF1 (C57 B1 female×DBA/2 male) adult female mice kept at specified pathogen free (SPF) hygienic level. Suspensions of HL-60 human leukemia cells, or approximately 0.1 cm^3 volume of tumor tissue derived from HT-168 human melanoma, PC-3 human prostate adenocarcinoma, T47D human breast carcinoma, MXT mouse mammary cancer, or mouse B16 melanoma cells were implanted subcutaneously to develop the tumors. After 12-18 days when the tumor-bearing mice were first treated, the size of the tumors was in the 0.2-0.4 cm^3 range. All compounds used were dissolved in physiological (0.9%) saline (NaCl), and the agents, alone or in combinations, were applied subcutaneously or intraperitoneally in 50 μl volume. Tumor volume was determined by calipers in three dimensions; this technique is well known to one having ordinary skill in the art. Tumor volume was calculated according to the generally accepted formula: V=a^2×b×π/6, where “a” and “b” mean the shortest and longest diameter, respectively, of the measured tumor.
The mouse mammary MXT tumor was developed as described above. On day 7 after transplantation of tumor cells, the animals were either remained untreated (group 1) or were treated with 2 mg/kg of CisPt alone (Group 2), or 4 mg/kg of CisPt alone (Group 3), or 4.6 mg/kg of CCDTHT alone (Group 4), or 2 mg/kg of CisPt+4.6 mg/kg of CCDTHT (Group 5), or 4 mg/kg of CisPt+4.6 mg/kg of CCDTHT (Group 6). CCDTHT and CisPt were administered subcutaneously and intraperitoneally, respectively, once daily for 10 days, including a 2-day rest period after 5 days of treatment (i.e., the last treatment was on day 19). Each group consisted of 7 animals, and the mean values±std. dev. for tumor volumes and body weight are shown in TABLE 4 and TABLE 5, respectively. While in this tumor model CCDTHT alone reduced the tumor volume less effectively than in the human tumor models, it clearly added to the tumor volume-reducing effect of CisPt (TABLE 4). A dramatic reduction in tumor volume was particularly evident in Group 6 (4 mg/kg CisPt+4.6 mg/kg CCDTHT).
(§1) The mouse mammary MXT tumor model was developed and treated as described above. On day 7 the animals were either remained untreated (Group 1) or were treated with 3 mg/kg of CisPt (Group 2) or 3 mg/kg of CisPt+15 mg/kg of highly purified PALP (Group 3). CisPt and PALP were administered intraperitoneally and subcutaneously, respectively, seven times on every second day (i.e., treatments were terminated on day 21). Each group included 7 animals; the mean values±std. dev. for tumor volumes and body weight are shown in TABLE 6 and TABLE 7, respectively.
The mouse mammary MXT tumor model was developed and treated as described above. On day 7 the animals either remained untreated (Group 1) or were treated with 3 mg/kg CisPt (Group 2), 3 mg/kg CisPt+4.6 mg/kg of CCDTHT (Group 3), or 3 mg/kg CisPt+4.6 mg/kg of CCDTHT+15 mg/kg highly purified PALP (Group 4). CisPt was administered intraperitoneally 9-times once every second day; CCDTHT was administered for 15 days once daily; and PALP was administered 3 times every 3rd day. In each group 7 mice were included. The mean values±std. dev. for tumor volumes and body weights are shown in TABLE 9 and TABLE 10, respectively.

[3] = Body weight of animals in the MXT tumor model; assay type: in vivo, mouse; details: for Body weight, Day 7: start of treatment
Experimental: The mouse mammary MXT tumor was developed as described above. […] CCDTHT and CisPt were administered subcutaneously and intraperitoneally, respectively, once daily for 10 days, including a 2-day rest period after 5 days of treatment (i.e., the last treatment was on day 19). Each group consisted of 7 animals, and the mean values±std. dev. for tumor volumes and body weight are shown in TABLE 4 and TABLE 5, respectively.
as §1, with “On day 7 the animals were either remained untreated (Group 1) or were treated with 3 mg/kg of CisPt (Group 2) or 3 mg/kg of CisPt+15 mg/kg of highly purified PALP (Group 3).” left out
The mouse mammary MXT tumor model was developed and treated as described above. […] In each group 7 mice were included. The mean values±std. dev. for tumor volumes and body weights are shown in TABLE 9 and TABLE 10, respectively.

[4] = Example 31, CisPt 2 mg/kg i.p. and/or CCDTHT 4.6 mg/kg s.c., once daily
[5] = Example 31, CisPt 2 mg/kg i.p. and/or CCDTHT 4.6 mg/kg s.c.
[6] = Example 31, CisPt 4 mg/kg i.p. without or with CCDTHT 4.6 mg/kg s.c., once daily
[7] = Example 31, CisPt 4 mg/kg i.p. without or with CCDTHT 4.6 mg/kg s.c.
[8] = Example 32, CisPt 3 mg/kg i.p. without or with PALP 15 mg/kg s.c., every second day
[9] = Example 32, CisPt 3 mg/kg i.p. without or with PALP 15 mg/kg s.c.
[10] = Example 34, CisPt 3 mg/kg i.p. every second day, CCDTHT 4.6 mg/kg once daily, PALP 15 mg/kg every 3rd day
[11] = Example 34, CisPt 3 mg/kg i.p., CCDTHT 4.6 mg/kg, PALP 15 mg/kg

## C[N+](C)=c1ccc2nc3c(ccc4ccccc43)oc-2c1.[Cl-].[Cl-].[Cl-].[Zn+2] [meldola blue]
[1]
  inducing cancer cell death, compared with CCDTHT: ineffective or less effective

## CN(C)c1ccc2nc3ccc(=[N+](C)C)c([N+](=O)[O-])c-3sc2c1.[Cl-] [methylene green]
[1]
  inducing cancer cell death, compared with CCDTHT: ineffective or less effective

## CN(C)c1ccc(C(=C2C=CC(=[N+](C)C)C=C2)c2ccc([N+](C)(C)C)cc2)cc1.[Cl-].[Cl-] [methyl green]
[1]
  inducing cancer cell death, compared with CCDTHT: ineffective or less effective

## N.N.[Cl][Pt][Cl] [CisPt, Cisplatin]
[2]; Example 31, CisPt 2 mg/kg and/or CCDTHT 4.6 mg/kg (groups 2, 4, 5)
  survival: 32.7 ± 6.2 days
[2]; [4]
  Tumor volume, Day 14: 3.34 ± 1.04 cm^3
  Tumor volume, Day 18: 5.37 ± 0.68 cm^3
  Tumor volume, Day 21: 6.23 ± 0.86 cm^3
[2]; [5]
  Tumor volume, Day 7: 0.46 ± 0.08 cm^3
[2]; [6]
  Tumor volume, Day 14: 1.77 ± 0.40 cm^3
  Tumor volume, Day 18: all dead
  Tumor volume, Day 21: all dead
[2]; [7]
  Tumor volume, Day 7: 0.45 ± 0.10 cm^3
[2]; Example 31, CisPt 4 mg/kg without or with CCDTHT 4.6 mg/kg (groups 3, 6)
  survival: 18.1 ± 0.7 days
[2]; [8]
  Tumor volume, Day 11: 1.45 ± 0.22 cm^3
  Tumor volume, Day 16: 4.53 ± 1.00 cm^3
  Tumor volume, Day 21: 5.86 ± 1.38 cm^3
[2]; [9]
  Tumor volume, Day 7: 0.38 ± 0.01 cm^3
[2]; Example 32, CisPt 3 mg/kg without or with PALP 15 mg/kg
  survival: 31.1 ± 6.2 days
[2]; Example 34, CisPt 3 mg/kg alone or with CCDTHT 4.6 mg/kg + PALP 15 mg/kg
  survival time: 34 days
[2]; [10]
  Tumor volume, Day 11: 1.92 ± 0.67 cm^3
  Tumor volume, Day 15: 3.80 ± 1.30 cm^3
  Tumor volume, Day 21: 6.64 ± 1.28 cm^3
[2]; [11]
  Tumor volume, Day 7: 0.36 ± 0.12 cm^3
[3]; [4]
  Body weight, Day 14: 22.9 ± 0.87 g
  Body weight, Day 18: 22.3 ± 1.02 g
  Body weight, Day 21: 21.2 ± 1.31 g
[3]; [5]
  Body weight, Day 7: 22.4 ± 0.73 g
[3]; [6]
  Body weight, Day 14: 19.4 ± 1.05 g
  Body weight, Day 18: all dead
  Body weight, Day 21: all dead
[3]; [7]
  Body weight, Day 7: 22.5 ± 0.92 g
[3]; [8]
  Body weight, Day 11: 23.1 ± 0.52 g
  Body weight, Day 16: 20.9 ± 0.65 g
  Body weight, Day 21: 19.2 ± 0.66 g
[3]; [9]
  Body weight, Day 7: 22.7 ± 0.37 g
[3]; [10]
  Body weight, Day 11: 23.10 ± 1.40 g
  Body weight, Day 15: 22.9 ± 1.00 g
  Body weight, Day 21: 20.6 ± 1.80 g
[3]; [11]
  Body weight, Day 7: 22.2 ± 1.10 g

## celestine blue
[1]
  inducing cancer cell death, compared with CCDTHT: ineffective or less effective

## CN(C)c1ccc2cc3ccc(=[N+](C)C)cc-3oc2c1.[Cl-] [pyronin]
[1]
  inducing cancer cell death, compared with CCDTHT: ineffective or less effective

## CN(C)c1ccc2nc3c(C(=O)O)cc(=O)c(O)c-3oc2c1.Cl [gallocyanine]
[1]
  inducing cancer cell death, compared with CCDTHT: ineffective or less effective

## CN(C)c1ccc2nc3ccc(=[N+](C)C)cc-3sc2c1 [methylene blue]
[1]
  inducing cancer cell death, compared with CCDTHT: ineffective or less effective
